Laboratory results from the SangsterLogP compilation.

| SMILES | logP |
| --- | --- |
| COc1ccc(-c2nc3ccc(O)cc3s2)cc1 | 1.75 |
| COCOc1ccc2nc(-c3ccc(N)c(I)c3)sc2c1 | 3.03 |
| COC(=O)c1ccc2nc(-c3ccc(N)c(I)c3)sc2c1 | 3.29 |
| Nc1ccc(-c2nc3ccc([N+](=O)[O-])cc3s2)cc1I | 3.33 |
| Nc1ccc(-c2nc3ccc([N+](=O)[O-])cc3s2)cc1 | 2.21 |
| COc1ccc(-c2nc3ccc(N)c(I)c3s2)cc1 | 2.95 |
| COCOc1ccc2nc(-c3ccc(N)cc3)sc2c1 | 1.86 |
| COc1ccc(-c2nc3ccc(N)cc3s2)cc1 | 1.76 |
| COc1ccc2nc(-c3ccc(O)cc3)sc2c1 | 1.8 |
| CNc1ccc(-c2nc3ccc(Br)cc3s2)cc1 | 3.64 |
| CNc1ccc(-c2nc3ccc(OC)cc3s2)cc1 | 2.58 |
| Oc1ccc(-c2nc3ccc(O)c(I)c3s2)cc1 | 1.01 |
| COc1ccc2nc(-c3ccc(N)cc3)sc2c1 | 1.87 |
| Nc1ccc(-c2nc3ccc(Br)cc3s2)cc1 | 2.87 |
| COC(=O)c1ccc2nc(-c3ccc(N)cc3)sc2c1 | 2.07 |
| COc1ccc(-c2nc3ccc(O)c(I)c3s2)cc1 | 2.49 |
| CNc1ccc(-c2nc3ccc([N+](=O)[O-])cc3s2)cc1 | 2.96 |
| Nc1ccc2nc(-c3ccc(O)cc3)sc2c1I | 1.6 |

Continued, values first:

| logP | SMILES |
| --- | --- |
| 4.11 | Nc1ccc(-c2nc3ccc(Br)cc3s2)cc1I |
| 1.65 | Nc1ccc(-c2nc3ccc(O)cc3s2)cc1I |
| 3.9 | CNc1ccc(-c2nc3ccccc3s2)cc1I |
| 3.17 | Nc1ccc(-c2nc3ccccc3s2)cc1I |
| 2.31 | COc1ccc2nc(-c3ccc(O)c(I)c3)sc2c1 |
| 3.8 | CNc1ccc(-c2nc3ccc(OC)cc3s2)cc1I |
| 1.98 | Nc1ccc(-c2nc3ccccc3s2)cc1 |
| 1.86 | Oc1ccc(-c2nc3ccccc3s2)cc1 |
| 2.35 | CNc1ccc(-c2nc3ccc(O)cc3s2)cc1I |
| 1.09 | Oc1ccc2nc(-c3ccc(O)c(I)c3)sc2c1 |
| 4.08 | CNc1ccc(-c2nc3ccc([N+](=O)[O-])cc3s2)cc1I |
| 2.22 | Oc1ccc(-c2nc3ccccc3s2)cc1I |
| 3.08 | COc1ccc2nc(-c3ccc(N)c(I)c3)sc2c1 |
| 4.86 | CNc1ccc(-c2nc3ccc(Br)cc3s2)cc1I |
